Reference: paper PMC11302339, “A series of pyrimidine-based antifungals with anti-mold activity disrupt ER function in Aspergillus fumigatus” (Microbiology Spectrum, 2024)
≈ marks a conversion by molar mass, not a printed value. Where two headings read alike, the source gives them in different places.

How the values were obtained:
[1] = system: A. fumigatus biofilms; assay: A. fumigatus hyphal (biofilm) activity, resazurin; type: cell-based, Aspergillus fumigatus; settings: conidia germinated 14 hours
Procedure: To determine antifungal activity against A. fumigatus hyphae, a 96-well plate was inoculated with 1 × 10^3 conidia per well in 100 µL RPMI + MOPS with the edge wells filled with 200 µL sterile water to minimize edge effects. Plates were incubated at 37°C for 14 hours. A twofold dilution series of 1 or 7 was prepared in RPMI + MOPS at 2× concentration with 0.002% resazurin, then 100 µL of the drug was added to wells, and plates were incubated for an additional 24 hours. Fluorescence was measured with an excitation wavelength of 570 nm and an emission wavelength of 615 nm. Data are representative of two independent experiments performed in biological triplicate.

[2] = system: C. neoformans H99; assay: Generation of resistant isolates (high-density plating, serial passaging); type: cell-based, Cryptococcus neoformans
Procedure: Finally, we attempted to generate resistant isolates to understand the rate of resistance and potentially uncover mechanism of action. First, to determine spontaneous rates, we performed high-density plating (~2 × 10^9 cells) of C. neoformans on YPD plates containing 64 µg/mL 1 ([24]). […] Next, we employed serial passaging of both C. neoformans H99 and Saccharomyces cerevisiae BY4741 to evaluate evolved resistance upon exposure to sub-MIC concentrations. Yeast cells were grown in a 96-well format in the presence of 1/4 MIC 1, then cultures were passaged to fresh media containing a twofold increase in drug concentration. At each passage, the inoculum was diluted ~1:100 to allow ~10 generations of growth for a total of at least 50 generations over the course of the experiment.

[3] = system: A. fumigatus CEA10 hyphae; assay: Propidium iodide viability staining of treated hyphae; type: cell-based, Aspergillus fumigatus
Procedure: For PI staining of 1-treated hyphae, 0.5 × 10^3conidia/mL in 100 µL RPMI + MOPS were inoculated into chambers of an eight-well chamber slide and incubated at 37°C for 14 hours. 100 µL of media containing a 2× concentration of 1 or an equivalent amount of DMSO was added to each chamber, and slides were incubated for an additional 24 hours. Media were removed from chambers, replaced with PBS + 40 µM propidium iodide (Invitrogen, Cat # P3566), then slides were incubated at room temperature for 20 min in the dark. Images were acquired on a Nikon epifluorescence microscope with a Nikon DS-Fi1 camera and Nikon Elements image acquisition and analysis software. Images were processed equally with linear brightness and contrast adjustments in Photoshop, only to increase ease of viewing. Representative images of two independent experiments are shown with two biological replicates each.

[4] = Protein binding analysis, plasma; type: in vitro ADME; settings: mouse, mouse plasma diluted 1:10 with PBS
[5] = system: A. fumigatus collagenase secretion; assay: Detection of secreted collagenase by azocoll; type: cell-based, Aspergillus fumigatus
Procedure: 1 × 10^6 CEA10 conidia/mL were cultured in 25 mL liquid GMM for 18 hours, then mycelia were washed with sterile ddH2O and transferred to 10% FBS-MM and treated with DMSO or the indicated concentration of drugs. Cultures were incubated at 37°C, 250 rpm, for an additional 24 hours, then the supernatant and biomass were collected. One milliliter of supernatant was spun at top speed for 5 min. Azocoll of <50 mesh (Sigma, Cat # 194932) was washed in buffer (50 mM Tris, pH 7.5, 1 mM NaCl, and 0.01% sodium azide) then resuspended to 5 mg/mL. Fifteen microliters of culture supernatant was added to the 2 mL azocoll solution and incubated at 37°C with shaking at 300 rpm for 3 hours in the dark. Reactions were spun at maximum speed for 3 min; 200 µL of supernatant was then transferred to a 96-well plate; and Abs 520 was measured. Biomass was lyophilized, and absorbance readings were normalized to milligram tissue. Data represent the mean and SEM of biological triplicates with technical duplicates except for compounds 5 and 7, which are biological duplicates due to the limited availability of the drug and the required culture size for this assay.

[6] = system: F. oxysporum; assay: MIC testing (CLSI broth dilution); type: cell-based; settings: Fusarium oxysporum; strain DUMC Fo, clinical isolate; CLSI conditions, 72 h
Procedure: (§1) MICs were determined using Clinical and Laboratory Standards Institute guidelines ([48], [49]). All yeasts were cultured overnight in 3 mL YPD at 30°C, then washed twice in sterile phosphate-buffered saline (PBS). Twofold serial dilutions of each drug were prepared in RMPI + MOPS, then 1 × 10^3 cells were added per well. For mold species, wells were inoculated with 1.25 × 10^3 conidia per well. Plates were incubated at 37°C for 24 (Candida spp. and S. cerevisiae), 48 (Aspergillus spp., M. circinelloides, S. apiospermum, and L. prolificans), or 72 (C. neoformans and F. oxysporum) hours. S. cerevisiae BY4743 MICs were tested in YPD due to nutritional requirements of this strain. Each assay was performed in technical duplicate in at least two independent experiments performed on different days.

[7] = system: C. neoformans; assay: MIC testing (CLSI broth dilution); type: cell-based; settings: Cryptococcus neoformans
Procedure: as §1

[8] = system: A. fumigatus; assay: MIC testing (CLSI broth dilution); type: cell-based; settings: Aspergillus fumigatus
Procedure: as §1

[9] = system: S. apiospermum; assay: MIC testing (CLSI broth dilution); type: cell-based; settings: Scedosporium apiospermum; strain MYA3635 (lab reference strain); CLSI conditions
Procedure: as §1

[10] = system: A. fumigatus CEA10; assay: ER stress interactions on GMM plates; type: cell-based, Aspergillus fumigatus; settings: 1 µg/mL 1 on GMM
Procedure: For Aspergillus fumigatus, 5 µL of 1 × 10^4 CEA10 conidia was spotted at the center of GMM plates containing DMSO or 1 µg/mL 1 in combination with DTT, brefeldin A, or tunicamycin. Plates were incubated at 37°C for 72 hours. Representative images of two independent experiments with three biological replicates each were obtained. For Ire1 strains, the cells were prepared as described above but were incubated at 30°C.

Q: For `OC1CC(c2cc(N3CCC(CCc4ccccc4)CC3)ncn2)C1` (stereo not shown) [compound 1], which IC50 ([1]; Aspergillus fumigatus, then treated 24 hours, read-out: IC50 of hyphal growth) is on record?
A: The IC50 was 1.66 µg/mL (≈ 4.92 µM).

Q: What about the “inhibition of hyphal growth” value ([1]; escalating doses 24 hours) of the same molecule?
A: Its value is “dose-dependent inhibition of hyphal growth”.

Q: What about the “evolved resistance, serial passaging” value ([2]; from 1/4 MIC, twofold increases, at least 50 generations) of the same molecule?
A: Its value is “did not recover stable resistance”.

Q: And the “spontaneous resistance, high-density plating” value ([2]; ~2 × 10^9 cells on YPD with 64 µg/mL 1)?
A: Its value is “unable to isolate resistant colonies”.

Q: What about the “propidium iodide staining of hyphae” value ([3]; 8 µg/mL for 24 hours after 14 hours germination) of the same molecule?
A: The value was “did not show increased staining relative to vehicle-treated controls”.

Q: What about the “propidium iodide staining of hyphae” value ([3]; 32 µg/mL for 24 hours after 14 hours germination) of the same molecule?
A: Its value is “stained brightly”.

Q: What about the “type of activity against biofilms” value ([3]; at concentrations 2× the MIC) of the same molecule?
A: The value was “fungicidal”.

Q: What about the fraction unbound at 6 h, 5 µM ([4]; read-out: Corrected % Protein binding (converted)) of the same molecule?
A: The fraction unbound at 6 h, 5 µM was 0.0285.

Q: And the fraction unbound at 6 h, 5 µM ([4]; uncorrected (plasma diluted 1:10), read-out: % Protein binding (converted))?
A: Its fraction unbound at 6 h, 5 µM is 0.227.

Q: And the collagenase secretion ([5]; 1 µg/mL, 24 hours in 10% FBS-MM)?
A: The collagenase secretion was “did not change collagenase secretion”.

Q: And the collagenase secretion ([5]; 2, 4, 8 and 16 µg/mL, 24 hours in 10% FBS-MM, dose-dependent)?
A: Its collagenase secretion is “significantly inhibited”.

Q: What about the collagenase secretion ([5]; treated with 1/2 MIC of each compound) of the same molecule?
A: Its collagenase secretion is “inhibition of collagenase secretion was similar”.

Q: What about the MIC [6] of the same molecule?
A: The MIC was greater than 64 µg/mL.

Q: And the MIC ([7]; 72 h, strain H99, CLSI conditions)?
A: The MIC was 1 µg/mL (≈ 2.96 µM).

Q: What about the MIC ([7]; strain DUMC118, clinical isolate, CLSI conditions) of the same molecule?
A: The MIC was 2 µg/mL (≈ 5.93 µM).

Q: And the MIC ([7]; strain DUMC138, clinical isolate, CLSI conditions)?
A: The MIC was 1 µg/mL (≈ 2.96 µM).

Q: And the MIC ([7]; strain JEC21, CLSI conditions)?
A: The MIC was 2 µg/mL (≈ 5.93 µM).

Q: What about the MIC ([7]; strain not named) of the same molecule?
A: The MIC was 2 µg/mL (≈ 5.93 µM).

Q: What about the MIC ([8]; 48 h, strain CEA10, CLSI conditions, 48 h, read-out: MIC) of the same molecule?
A: The MIC was 16 µg/mL (≈ 47.4 µM).

Q: And the MIC ([8]; ATCC13073, strain ATCC13073, CLSI conditions, read-out: MIC)?
A: Its MIC is 8 µg/mL (≈ 23.7 µM).

Q: What about the MIC ([8]; strain AF293, CLSI conditions, read-out: MIC) of the same molecule?
A: The MIC was 16 µg/mL (≈ 47.4 µM).

Q: And the MIC ([8]; strain S001, clinical isolate, CLSI conditions, read-out: MIC)?
A: The MIC was 8 µg/mL (≈ 23.7 µM).

Q: And the MIC ([8]; strain S003, clinical isolate, CLSI conditions, read-out: MIC)?
A: The MIC was 4 µg/mL (≈ 11.9 µM).

Q: What about the MIC ([8]; strain SPF93 (voriconazole-susceptible parent), CLSI conditions, read-out: MIC) of the same molecule?
A: Its MIC is 8 µg/mL (≈ 23.7 µM).

Q: What about the MIC ([8]; strain SPF98, drug-resistant isolate (cyp51A TR34 L98H), CLSI conditions) of the same molecule?
A: Its MIC is 8 µg/mL (≈ 23.7 µM).

Q: What about the MIC ([8]; A. fumigatus reference strains and clinical isolates, read-out: MIC) of the same molecule?
A: Its MIC is 8 to 16 µg/mL (≈ 23.7 to 47.4 µM).

Q: What about the MIC [9] of the same molecule?
A: Its MIC is 2 µg/mL (≈ 5.93 µM).

Q: And the “interaction with DTT” value ([10]; 37°C, 72 hours)?
A: Its value is “synergistic”.

Q: And the “interaction with brefeldin A” value ([10]; 37°C, 72 hours)?
A: Its value is “modest antagonism”.

Q: And the interaction with tunicamycin ([10]; 10 µg/mL tunicamycin)?
A: Its interaction with tunicamycin is “slight antagonism”.

Q: What about the interaction with tunicamycin ([10]; 50 µg/mL tunicamycin) of the same molecule?
A: The interaction with tunicamycin was “no interaction”.
